# Measurements reported in US20210253572A1, “IMIDAZO[1,2-B]PYRIDAZINES AS TRK INHIBITORS” (BenevolentAl Bio Limited, priority 2018, published 2021).
# How the values were obtained:
# Format in all cases: biochemical
# TrkC = target: T1, TrkC (Homo sapiens, UniProt Q16288); experiment: HTRF KinEASE kinase assay, recombinant Human TRK enzyme, TrkC (NTRK3); details: NTRK3 10 nM, read-out: TrkC Enz
# T1 construct: purchased Invitrogen
# Protocol: (§1) A suitable assay for determining the Trk inhibition activity of a compound is detailed herein below.
# (§2) To determine the IC50 of small molecule compounds for the Human TRK receptors, HTRF® KinEASE™ kinase kits from Cisbio were used. Assays were carried out in low volume, black 384-well plates.
# (§3) Recombinant Human TRK enzymes (Invitrogen) were incubated in the presence or absence of the compound (11-point dose response with FAC as 10 μM) for 30 minutes at 23° C. Kinase reaction was started by addition of ATP to a mixture containing the enzyme (NTRK1-4 nM, NTRK2-1 nM, NTRK3-10 nM) and substrate (1 μM). Kinase reaction was allowed to carry on for 10 to 45 minutes at 23° C. after which it was stopped by addition of the detection mix (supplied by vendor) containing EDTA, TK-Ab-labelled with Eu^3+-cryptate (1:200 dilutions) and Streptavidin-XL665 (250 nM). Assay plates were incubated in this detection mix for 60 minutes at 23° C. The resulting TR-FRET signal, calculated as the fluorescence ratio at 665/620 nm, was read on an Envision and was proportional to the level of phosphorylation of the peptide in the presence or absence of the compound. The uniformity of the plates were assured with Z′ value [1−{3*(SDHPE+SDZPE)/(ZPE−HPE)}]. The percent (%) effect i.e. Inhibition of compound was calculated in comparison to the signal in the positive (HPE) and negative control (ZPE) wells within each assay plate. The endpoint value % Inhibition for the Standard compound was evaluated in each experiment as a quality control measure. IC50 was determined by plotting compound inhibition at respective dose in Graphpad prism5 using four parameter logistic curve fit.
# TrkB = target: T2, TrkB (Homo sapiens, UniProt Q16620); experiment: HTRF KinEASE kinase assay, recombinant Human TRK enzyme, TrkB (NTRK2); details: NTRK2 1 nM, read-out: TrkB Enz
# T2 construct: purchased Invitrogen
# T2 sequence (Q16620 32-822): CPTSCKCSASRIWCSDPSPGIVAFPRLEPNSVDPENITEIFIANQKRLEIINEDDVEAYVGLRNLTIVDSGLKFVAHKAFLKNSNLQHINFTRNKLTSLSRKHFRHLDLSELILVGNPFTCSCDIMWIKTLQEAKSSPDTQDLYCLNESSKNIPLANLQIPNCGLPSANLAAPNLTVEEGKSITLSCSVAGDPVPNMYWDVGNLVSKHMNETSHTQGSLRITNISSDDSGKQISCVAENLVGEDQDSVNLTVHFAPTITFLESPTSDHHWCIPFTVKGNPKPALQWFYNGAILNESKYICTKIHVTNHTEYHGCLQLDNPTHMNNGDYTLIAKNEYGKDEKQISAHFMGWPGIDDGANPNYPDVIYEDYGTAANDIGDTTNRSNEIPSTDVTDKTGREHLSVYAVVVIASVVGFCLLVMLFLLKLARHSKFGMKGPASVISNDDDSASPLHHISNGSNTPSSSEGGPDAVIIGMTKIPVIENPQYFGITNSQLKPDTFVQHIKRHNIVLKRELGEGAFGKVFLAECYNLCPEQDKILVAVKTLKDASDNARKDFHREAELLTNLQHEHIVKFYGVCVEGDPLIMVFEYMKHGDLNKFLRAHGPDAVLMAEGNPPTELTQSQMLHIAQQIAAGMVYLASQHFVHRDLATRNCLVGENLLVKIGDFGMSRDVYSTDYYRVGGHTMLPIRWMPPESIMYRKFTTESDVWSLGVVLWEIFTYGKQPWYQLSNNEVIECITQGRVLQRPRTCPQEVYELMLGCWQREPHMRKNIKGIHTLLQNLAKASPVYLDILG
# Protocol: as §1, §2, §3
# TrkA = target: T3, TrkA (Homo sapiens, UniProt P04629); experiment: HTRF KinEASE kinase assay, recombinant Human TRK enzyme, TrkA (NTRK1); details: NTRK1 4 nM, read-out: TrkA Enz
# T3 construct: purchased Invitrogen
# T3 sequence (P04629 33-796): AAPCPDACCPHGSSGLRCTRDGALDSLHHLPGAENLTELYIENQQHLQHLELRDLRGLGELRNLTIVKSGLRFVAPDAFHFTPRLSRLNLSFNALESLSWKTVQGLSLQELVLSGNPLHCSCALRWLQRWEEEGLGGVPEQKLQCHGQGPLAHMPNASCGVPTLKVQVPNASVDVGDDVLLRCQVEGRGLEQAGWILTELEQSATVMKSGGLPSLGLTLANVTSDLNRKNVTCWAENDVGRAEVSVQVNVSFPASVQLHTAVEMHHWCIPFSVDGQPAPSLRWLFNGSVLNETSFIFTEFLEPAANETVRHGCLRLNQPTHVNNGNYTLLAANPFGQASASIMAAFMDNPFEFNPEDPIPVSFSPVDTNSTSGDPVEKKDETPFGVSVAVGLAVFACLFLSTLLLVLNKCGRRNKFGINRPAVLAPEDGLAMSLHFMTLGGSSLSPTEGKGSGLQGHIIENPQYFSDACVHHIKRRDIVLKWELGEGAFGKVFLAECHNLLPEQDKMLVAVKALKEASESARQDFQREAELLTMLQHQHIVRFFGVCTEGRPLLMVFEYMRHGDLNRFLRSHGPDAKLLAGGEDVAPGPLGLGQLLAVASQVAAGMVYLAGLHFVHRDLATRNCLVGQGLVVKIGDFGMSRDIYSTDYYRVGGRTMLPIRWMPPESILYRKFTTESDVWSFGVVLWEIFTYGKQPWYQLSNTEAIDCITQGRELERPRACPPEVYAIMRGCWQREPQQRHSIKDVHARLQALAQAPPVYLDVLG
# Protocol: as §1, §2, §3
# T1 sequence (Q16288 32-839): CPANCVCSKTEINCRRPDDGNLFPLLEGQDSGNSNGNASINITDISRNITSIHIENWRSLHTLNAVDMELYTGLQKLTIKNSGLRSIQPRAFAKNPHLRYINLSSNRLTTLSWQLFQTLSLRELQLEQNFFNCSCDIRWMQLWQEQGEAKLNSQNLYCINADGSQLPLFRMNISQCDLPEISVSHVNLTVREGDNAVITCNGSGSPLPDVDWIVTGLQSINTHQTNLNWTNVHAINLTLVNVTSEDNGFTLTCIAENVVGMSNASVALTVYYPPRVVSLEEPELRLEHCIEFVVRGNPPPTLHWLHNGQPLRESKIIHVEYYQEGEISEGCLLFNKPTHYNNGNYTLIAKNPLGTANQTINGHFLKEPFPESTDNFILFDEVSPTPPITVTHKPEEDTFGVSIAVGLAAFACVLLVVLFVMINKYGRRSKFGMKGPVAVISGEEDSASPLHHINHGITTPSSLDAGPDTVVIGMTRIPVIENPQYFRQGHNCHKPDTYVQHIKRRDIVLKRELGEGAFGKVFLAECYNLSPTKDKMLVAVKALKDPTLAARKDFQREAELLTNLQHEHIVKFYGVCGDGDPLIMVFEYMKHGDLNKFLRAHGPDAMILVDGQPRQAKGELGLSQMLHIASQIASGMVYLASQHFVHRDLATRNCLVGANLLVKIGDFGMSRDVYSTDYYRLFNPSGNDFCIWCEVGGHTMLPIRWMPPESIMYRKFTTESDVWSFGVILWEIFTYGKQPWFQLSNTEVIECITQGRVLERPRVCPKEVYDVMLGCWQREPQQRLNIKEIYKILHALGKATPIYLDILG
IC50 (TrkC) [nM],IC50 (TrkB) [nM],IC50 (TrkA) [nM],Compound
3.28,4.54,1.73,"COC(=O)c1cccc(CN2CC[C@H](NC(=O)c3cnc4ccc(N5C[C@@H](F)C[C@@H]5c5cc(F)cc(SC)c5)nn34)C2)c1 [Example 16, Methyl 3-{[(3S)-3-{6-[(2R,4S)-4-fluoro-2-[3-fluoro-5-(methylsulfanyl)phenyl]pyrrolidin-1-yl]imidazo[1,2-b]pyridazine-3-amido}pyrrolidin-1-yl]methyl}benzoate]"
4.62,5.04,2.41,"CSc1cc(F)cc([C@H]2C[C@H](F)CN2c2ccc3ncc(C(=O)N[C@H]4CCN(Cc5cccc(O)c5)C4)n3n2)c1 [Example 17, 6-[(2R,4S)-4-fluoro-2-[3-fluoro-5-(methylsulfanyl)phenyl]pyrrolidin-1-yl]-N-[(3S)-1-[(3-hydroxyphenyl)methyl]pyrrolidin-3-yl]imidazo[1,2-b]pyridazine-3-carboxamide]"
5.19,7.82,2.87,"CSc1cc(F)cc([C@H]2C[C@H](F)CN2c2ccc3ncc(C(=O)N[C@H]4CCN(Cc5ccc(F)c(O)c5)C4)n3n2)c1 [Example 18, 6-[(2R,4S)-4-fluoro-2-[3-fluoro-5-(methylsulfanyl)phenyl]pyrrolidin-1-yl]-N-[(3S)-1-[(4-fluoro-3-hydroxyphenyl)methyl]pyrrolidin-3-yl]imidazo[1,2-b]pyridazine-3-carboxamide]"
2.99,3.04,2.46,"CSc1cc(F)cc([C@H]2C[C@H](F)CN2c2ccc3ncc(C(=O)NC4CN(Cc5ccc(F)c(O)c5)C4)n3n2)c1 [Example 19, 6-[(2R,4S)-4-fluoro-2-[3-fluoro-5-(methylsulfanyl)phenyl]pyrrolidin-1-yl]-N-{1-[(4-fluoro-3-hydroxyphenyl)methyl]azetidin-3-yl}imidazo[1,2-b]pyridazine-3-carboxamide]"
3.72,3.76,2.69,"CSc1cc(F)cc([C@H]2C[C@H](F)CN2c2ccc3ncc(C(=O)NC4CN(Cc5cccc(O)c5)C4)n3n2)c1 [Example 20, 6-[(2R,4S)-4-fluoro-2-[3-fluoro-5-(methylsulfanyl)phenyl]pyrrolidin-1-yl]-N-{1-[(3-hydroxyphenyl)methyl]azetidin-3-yl}imidazo[1,2-b]pyridazine-3-carboxamide]"
1.97,1.5,1.48,"CSc1cc(F)cc([C@H]2C[C@H](F)CN2c2ccc3ncc(C(=O)NC4CCN(Cc5ccc(F)c(O)c5)CC4)n3n2)c1 [Example 21, 6-[(2R,4S)-4-fluoro-2-[3-fluoro-5-(methylsulfanyl)phenyl]pyrrolidin-1-yl]-N-{1-[(4-fluoro-3-hydroxyphenyl)methyl]piperidin-4-yl}imidazo[1,2-b]pyridazine-3-carboxamide]"
2.13,2.01,1.4,"CSc1cc(F)cc([C@H]2C[C@H](F)CN2c2ccc3ncc(C(=O)NC4CCN(Cc5cccc(O)c5)CC4)n3n2)c1 [Example 22, 6-[(2R,4S)-4-fluoro-2-[3-fluoro-5-(methylsulfanyl)phenyl]pyrrolidin-1-yl]-N-{1-[(3-hydroxyphenyl)methyl]piperidin-4-yl}imidazo[1,2-b]pyridazine-3-carboxamide]"
6.85,10.3,2.37,"CO[C@H]1CN(Cc2ccc(F)c(O)c2)C[C@@H]1NC(=O)c1cnc2ccc(N3C[C@@H](F)C[C@@H]3c3cc(F)cc(SC)c3)nn12 [Example 23, 6-[(2R,4S)-4-fluoro-2-[3-fluoro-5-(methylsulfanyl)phenyl]pyrrolidin-1-yl]-N-[(3S,4S)-1-[(4-fluoro-3-hydroxyphenyl)methyl]-4-methoxypyrrolidin-3-yl]imidazo[1,2-b]pyridazine-3-carboxamide]"
2.97,1.85,1.87,"CSc1cc(F)cc([C@H]2C[C@H](F)CN2c2ccc3ncc(C(=O)NCc4ccc(F)c(O)c4)n3n2)c1 [Example 26, 6-[(2R,4S)-4-fluoro-2-[3-fluoro-5-(methylsulfanyl)phenyl]pyrrolidin-1-yl]-N-[(4-fluoro-3-hydroxyphenyl)methyl]imidazo[1,2-b]pyridazine-3-carboxamide]"
1.87,1.01,1.34,"CSc1cc(F)cc([C@H]2C[C@H](F)CN2c2ccc3ncc(C(=O)N[C@H]4CCN(C(=O)c5cccc(O)c5)C4)n3n2)c1 [Example 27, 6-[(2R,4S)-4-fluoro-2-[3-fluoro-5-(methylsulfanyl)phenyl]pyrrolidin-1-yl]-N-[(3S)-1-(3-hydroxybenzoyl)pyrrolidin-3-yl]imidazo[1,2-b]pyridazine-3-carboxamide]"
4.88,5.67,4.63,"CSc1cc(F)cc([C@H]2C[C@H](F)CN2c2ccc3ncc(C(=O)N[C@H]4CCN(Cc5cccc(OC(C)=O)c5)C4)n3n2)c1 [Example 28, 3-{[(3S)-3-{6-[(2R,4S)-4-fluoro-2-[3-fluoro-5-(methylsulfanyl)phenyl]pyrrolidin-1-yl]imidazo[1,2-b]pyridazine-3-amido}pyrrolidin-1-yl]methyl}phenyl Acetate]"
3.98,5.34,5.84,"CSc1cc(F)cc([C@H]2C[C@H](F)CN2c2ccc3ncc(C(=O)N[C@H]4CCN(Cc5cccc(C(=O)O)c5)C4)n3n2)c1 [Example 29, 3-{[(3S)-3-{6-[(2R,4S)-4-fluoro-2-[3-fluoro-5-(methylsulfanyl)phenyl]pyrrolidin-1-yl]imidazo[1,2-b]pyridazine-3-amido}pyrrolidin-1-yl]methyl}benzoic Acid]"
22.4,14.9,22.4,"CCCCOC(=O)c1cccc(CN2CC[C@H](NC(=O)c3cnc4ccc(N5C[C@@H](F)C[C@@H]5c5cc(F)cc(SC)c5)nn34)C2)c1 [Example 30, Butyl 3-{[(3S)-3-{6-[(2R,4S)-4-fluoro-2-[3-fluoro-5-(methylsulfanyl)phenyl]pyrrolidin-1-yl]imidazo[1,2-b]pyridazine-3-amido}pyrrolidin-1-yl]methyl}benzoate]"
1.38,0.86,1.38,"CSc1cc(F)cc([C@H]2C[C@H](F)CN2c2ccn3ncc(C(=O)NC4CCN(Cc5cccc(O)c5)CC4)c3n2)c1 [Example 31, 5-[(2R,4S)-4-fluoro-2-[3-fluoro-5-(methylsulfanyl)phenyl]pyrrolidin-1-yl]-N-{1-[(3-hydroxyphenyl)methyl]piperidin-4-yl}pyrazolo[1,5-a]pyrimidine-3-carboxamide]"
